Test results reported in article PMC7749613 (Journal of Cachexia, Sarcopenia and Muscle, 2020).
Bridge positions count the residues as written; N and C are the ends. Square brackets hold non-standard residues; d marks the D form. Peptide text beside a SMILES is read from it. d2Nal = N[C@H](Cc1ccc2ccccc2c1)C(=O)O; Nle = CCCC[C@H](N)C(=O)O

Legend:
OATP1B1 = target: T1, OATP1B1 (Homo sapiens, UniProt Q9Y6L6); assay: Inhibition of prototypical substrate (E17βG) uptake by TCMCB07 in HEK293/OATP1B1 cells; assay type: in vitro ADME
T1 construct: host or cells: HEK293
T1 sequence (Q9Y6L6 1-691): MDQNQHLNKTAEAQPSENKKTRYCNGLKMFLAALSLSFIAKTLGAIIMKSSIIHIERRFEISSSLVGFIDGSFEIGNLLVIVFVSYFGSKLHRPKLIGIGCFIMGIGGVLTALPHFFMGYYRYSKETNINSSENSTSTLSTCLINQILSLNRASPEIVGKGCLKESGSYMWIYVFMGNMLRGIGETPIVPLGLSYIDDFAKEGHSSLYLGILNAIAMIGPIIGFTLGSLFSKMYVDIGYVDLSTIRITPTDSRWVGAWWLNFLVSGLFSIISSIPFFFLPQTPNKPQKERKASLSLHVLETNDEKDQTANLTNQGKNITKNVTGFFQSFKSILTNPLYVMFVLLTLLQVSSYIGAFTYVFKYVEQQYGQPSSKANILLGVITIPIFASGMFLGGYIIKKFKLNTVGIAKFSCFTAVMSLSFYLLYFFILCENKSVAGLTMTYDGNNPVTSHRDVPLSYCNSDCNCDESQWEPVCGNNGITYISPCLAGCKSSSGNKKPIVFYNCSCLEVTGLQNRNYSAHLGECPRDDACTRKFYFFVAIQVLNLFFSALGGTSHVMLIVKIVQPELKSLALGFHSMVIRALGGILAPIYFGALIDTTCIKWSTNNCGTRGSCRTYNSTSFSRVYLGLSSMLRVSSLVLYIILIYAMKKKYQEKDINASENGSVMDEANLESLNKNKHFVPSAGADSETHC
Procedure: (§1) Cells were then washed three times × 1.0 mL each with pre‐warmed Hank's Balanced Salt Solution (HBSS) buffer. A 0.5 mL aliquot of uptake buffer [HBSS plus 10 mM 4‐(2‐hydroxyethyl)‐1‐piperazineethanesulfonic acid (HEPES), pH 7.4], containing the radiolabelled prototypical substrate and mannitol, was then incubated for various times up to 60 min to determine the optimal incubation time for subsequent experiments (i.e. time of sampling during linear uptake conditions). At the designated times, 1.0 mL of ice‐cold HBSS buffer was added to stop uptake after which the cells were rinsed three times with 1.0 mL with ice‐cold HBSS. Hyamine hydroxide (0.33 mL) was then added to each well to lyse the cells. The cells were transferred into a scintillation vial and mixed with 6.0 mL of cytosine scintillation cocktail. Radioactivity of the solubilized cells was determined with a dual‐channel liquid scintillation counter (Beckman LS 6000; Beckman Coulter Inc., Fullerton, CA) and the protein quantified by a bicinchoninic acid protein assay kit (Pierce Biotechnology; Rockford, IL).

[1] = In vivo mass balance study (urinary and faecal recovery) in mice; conditions: mouse, in vivo; for dose excreted at 24 h: total radioactivity
Procedure: Each mouse was then placed in a metabolic cage for 24 h, along with food and water, and the urine and faeces were collected. The metabolic cage was washed several times, after which 100 μL aliquots of diluted urine and faeces was placed in separate vials. Radioactivity measurements were then performed as described previously. All animal procedures were approved by the Institutional Animal Care and Use Committee at the University of Michigan, Ann Arbor.

OATP2B1 = target: T2, OATP2B1 (Homo sapiens, UniProt O94956); assay: Inhibition of prototypical substrate (E3S) uptake by TCMCB07 in HEK293/OATP2B1 cells; assay type: in vitro ADME
T2 construct: host or cells: HEK293
T2 sequence (O94956 1-709): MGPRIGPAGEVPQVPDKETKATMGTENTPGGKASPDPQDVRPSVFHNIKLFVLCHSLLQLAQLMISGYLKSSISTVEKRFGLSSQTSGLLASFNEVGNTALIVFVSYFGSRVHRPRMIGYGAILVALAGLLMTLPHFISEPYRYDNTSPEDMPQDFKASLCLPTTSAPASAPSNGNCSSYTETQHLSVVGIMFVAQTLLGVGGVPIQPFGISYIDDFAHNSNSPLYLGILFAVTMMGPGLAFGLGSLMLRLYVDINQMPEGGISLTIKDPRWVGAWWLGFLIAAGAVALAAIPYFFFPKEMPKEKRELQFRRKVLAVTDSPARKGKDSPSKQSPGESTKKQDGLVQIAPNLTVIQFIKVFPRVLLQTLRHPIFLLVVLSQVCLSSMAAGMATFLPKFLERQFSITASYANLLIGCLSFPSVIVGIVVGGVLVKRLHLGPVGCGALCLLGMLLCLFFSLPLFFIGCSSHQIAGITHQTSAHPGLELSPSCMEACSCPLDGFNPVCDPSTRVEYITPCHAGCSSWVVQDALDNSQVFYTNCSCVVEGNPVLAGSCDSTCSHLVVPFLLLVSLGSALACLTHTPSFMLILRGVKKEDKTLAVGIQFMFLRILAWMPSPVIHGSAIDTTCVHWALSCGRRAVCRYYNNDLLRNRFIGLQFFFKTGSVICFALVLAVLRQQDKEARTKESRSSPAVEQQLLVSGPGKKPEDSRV
Procedure: as §1

human P‐gp (ABCB1, MDR1) = target: T3, human P‐gp (ABCB1, MDR1) (Homo sapiens, UniProt P08183); assay: Transepithelial transport of digoxin (±TCMCB07) in MDCKII/MDR1 cells; assay type: in vitro ADME
T3 construct: host or cells: MDCKII
T3 sequence (P08183 whole entry): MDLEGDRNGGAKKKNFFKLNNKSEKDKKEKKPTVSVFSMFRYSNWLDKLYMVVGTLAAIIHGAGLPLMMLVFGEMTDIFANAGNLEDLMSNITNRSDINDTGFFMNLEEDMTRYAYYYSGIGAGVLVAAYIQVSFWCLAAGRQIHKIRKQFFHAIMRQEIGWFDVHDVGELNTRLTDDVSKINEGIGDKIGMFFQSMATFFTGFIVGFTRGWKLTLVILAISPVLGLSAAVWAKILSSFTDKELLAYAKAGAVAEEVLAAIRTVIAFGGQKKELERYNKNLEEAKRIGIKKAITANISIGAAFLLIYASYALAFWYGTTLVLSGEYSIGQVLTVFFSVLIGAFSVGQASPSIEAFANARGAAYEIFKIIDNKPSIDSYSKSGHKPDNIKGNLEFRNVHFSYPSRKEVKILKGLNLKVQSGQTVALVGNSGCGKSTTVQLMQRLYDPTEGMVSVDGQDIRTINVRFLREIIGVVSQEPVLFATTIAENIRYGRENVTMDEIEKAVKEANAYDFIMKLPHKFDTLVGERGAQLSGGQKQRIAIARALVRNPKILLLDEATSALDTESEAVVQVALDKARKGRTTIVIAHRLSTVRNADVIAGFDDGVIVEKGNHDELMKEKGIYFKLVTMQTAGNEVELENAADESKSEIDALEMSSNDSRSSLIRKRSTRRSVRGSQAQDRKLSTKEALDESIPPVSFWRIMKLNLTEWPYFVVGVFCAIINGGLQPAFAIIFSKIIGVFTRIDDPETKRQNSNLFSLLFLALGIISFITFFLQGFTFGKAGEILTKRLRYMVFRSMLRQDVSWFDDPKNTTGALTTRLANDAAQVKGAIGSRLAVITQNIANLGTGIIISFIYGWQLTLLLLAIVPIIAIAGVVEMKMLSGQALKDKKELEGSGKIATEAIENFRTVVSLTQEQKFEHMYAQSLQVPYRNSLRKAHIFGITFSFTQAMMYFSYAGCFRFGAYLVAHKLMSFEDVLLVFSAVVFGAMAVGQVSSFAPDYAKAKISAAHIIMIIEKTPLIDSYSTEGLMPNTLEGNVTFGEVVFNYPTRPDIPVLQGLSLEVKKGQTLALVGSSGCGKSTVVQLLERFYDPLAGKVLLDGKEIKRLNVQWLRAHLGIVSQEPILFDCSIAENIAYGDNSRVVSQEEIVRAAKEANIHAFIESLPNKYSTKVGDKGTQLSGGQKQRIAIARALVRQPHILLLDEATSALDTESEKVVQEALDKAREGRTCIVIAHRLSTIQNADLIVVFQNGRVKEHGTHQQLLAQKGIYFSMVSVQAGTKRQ
Procedure: Cells were then washed three times, each with 0.5 mL pre‐warmed HBSS buffer. […] The cells were then incubated for various times up to 60 min. […] At the designated times, 15 μL of apical buffer and 50 μL of basolateral buffer were sampled. Once all the samples were collected, 0.5 mL of ice‐cold HBSS buffer was added to the well to stop transport after which the cells were rinsed three times with 0.5 mL of ice‐cold HBSS. The filters with monolayers were then detached from the chamber and placed in a scintillation vial, and the cells were lysed with 0.33 mL hyamine hydroxide.
The permeability of digoxin and rosuvastatin (prototypical substrates for MDR1 and BCRP, respectively) was determined by the following ^18 : (4) Papp=CR·VR/CD^o·A·∆Δt, where Papp is the apparent permeability, CR is the concentration of substrate in the receiver chamber, CD^o is the concentration of substrate in the donor chamber at time zero, VR is the volume of buffer in the receiver chamber, A is the surface area of the insert filter membrane, and ∆t is the time over which permeability is measured.

OATP1A2 = target: T4, OATP1A2 (Homo sapiens, UniProt P46721); assay: Cellular uptake in HEK293/OATP1A2‐transfected versus mock cells
T4 sequence (P46721 1-670): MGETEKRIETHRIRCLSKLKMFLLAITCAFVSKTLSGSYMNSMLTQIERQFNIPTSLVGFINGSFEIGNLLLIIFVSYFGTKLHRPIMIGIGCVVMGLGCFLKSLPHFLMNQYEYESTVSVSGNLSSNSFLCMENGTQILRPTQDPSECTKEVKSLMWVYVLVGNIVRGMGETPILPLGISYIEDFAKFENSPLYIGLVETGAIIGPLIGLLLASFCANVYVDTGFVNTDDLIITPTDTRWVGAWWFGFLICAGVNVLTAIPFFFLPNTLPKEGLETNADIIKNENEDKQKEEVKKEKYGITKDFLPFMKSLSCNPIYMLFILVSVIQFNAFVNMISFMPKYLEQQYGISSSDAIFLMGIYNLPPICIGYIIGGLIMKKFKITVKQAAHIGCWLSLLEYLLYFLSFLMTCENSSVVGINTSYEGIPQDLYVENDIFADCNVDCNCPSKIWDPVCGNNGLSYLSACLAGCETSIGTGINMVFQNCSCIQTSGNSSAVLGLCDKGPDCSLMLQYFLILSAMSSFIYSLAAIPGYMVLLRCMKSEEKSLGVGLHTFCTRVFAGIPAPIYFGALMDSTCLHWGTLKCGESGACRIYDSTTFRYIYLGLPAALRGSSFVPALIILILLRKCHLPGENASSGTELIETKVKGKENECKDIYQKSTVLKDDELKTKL
Procedure: Mock and transfected cells (250 000 cells/well) were seeded onto BioCoat poly‐D‐lysine 24 well plates (Corning Inc.) and cultured for 2 days as described previously for the other OATPs. […] Cells were incubated for various times over 10 min for the uptake studies. Radioactivity and protein measurements were then performed as described previously.
Cellular uptake and transepithelial transport were calculated as described previously by our laboratory. ^16 , ^17 , ^18 , ^19 [^3H]mannitol or [^14C]mannitol was used to correct the uptake of [^14C]substrate or [^3H]substrate, respectively, due to filter binding and extracellular content, as well as the transepithelial transport of substrate due to paracellular flux.
Uptake kinetics in mock cells was evaluated by a linear term: (3) v=Slope·C+Yint, where Slope is the non‐saturable rate constant and Yint is the y‐intercept of the line.

`CCCC[C@H](NC(C)=O)C(=O)N[C@H]1CC(=O)NCCCC[C@@H](C(=O)N[C@@H](C(=O)N2CCC[C@@H]2C(N)=O)C(C)C)NC(=O)[C@H](Cc2c[nH]c3ccccc23)NC(=O)[C@H](CCCN=C(N)N)NC(=O)[C@@H](Cc2ccc3ccccc3c2)NC(=O)[C@@H]2CCCN2C1=O` [TCMCB07, Ac‐Nle‐c[Asp‐Pro‐dNal2′‐Arg‐Trp‐Lys]‐dVal‐dPro‐NH2] (Ac-[Nle]DP[d2Nal]RWK[dV][dP]-NH2; lactam 2-7) gave an IC50 (OATP1B1) of 6.8 ± 1 µM, a Slope factor (OATP1B1; slope factor n of Eqn 1, OATP1B1, substrate E17βG) of 1.0 ± 0.1 and an oral absorption [1] of 24.2%. The dose excreted at 24 h ([1]; iv, 23.3 mg/kg, % Urinary recovery, intravenous TCMCB07) was 14%, the dose excreted at 24 h ([1]; iv, faecal (biliary) share of total recovery (faeces/(urine + faeces))) was 76% and the dose excreted at 24 h ([1]; po, 23.3 mg/kg, % Urinary recovery, oral TCMCB07) was 5%. For the same molecule, the dose excreted at 24 h ([1]; po, faecal share of total recovery (faeces/(urine + faeces))) was 95%, the IC50 (OATP2B1) was 524 ± 83 µM and the “decrease of MDR1‐mediated permeability of digoxin, A to B direction” value (human P‐gp (ABCB1, MDR1); in the presence of 500 μM TCMCB07, decreased by) was 27%. The “increase of MDR1‐mediated permeability of digoxin, B to A direction” value (human P‐gp (ABCB1, MDR1); in the presence of 500 μM TCMCB07, increased by) was 68%, the “effect on P‐gp (MDR1)‐mediated permeability of prototypical substrate” value (human P‐gp (ABCB1, MDR1); transfected cells, 500 μM TCMCB07) was “did not affect” and the “saturable uptake component (V max/K m) as share of total uptake (V max/K m + K d)” value (OATP1A2; OATP1A2‐transfected cells, at low concentrations (<< K m)) was “over 90%”. The “uptake of TCMCB07 in OATP1A2 cells as compared with mock cells” value (OATP1A2; at 5 min) was 3–4 times greater.
